Calls of active or inactive are those of the source. No stated cut-off is given here; in the data, actives have a measured IC50 and inactives only a lower limit.

For the assay, the target named is Envelope glycoprotein gp160 (Human immunodeficiency virus 1, UniProt Q6QLK5). The experiment in a line: cell-free HIV fusion peptide-binding blockers – biochemical, uHTS, fluorescence dequenching, […] (AID 1986).
Envelope glycoprotein gp160, sequence (Q6QLK5 whole entry, the tested form may be a part): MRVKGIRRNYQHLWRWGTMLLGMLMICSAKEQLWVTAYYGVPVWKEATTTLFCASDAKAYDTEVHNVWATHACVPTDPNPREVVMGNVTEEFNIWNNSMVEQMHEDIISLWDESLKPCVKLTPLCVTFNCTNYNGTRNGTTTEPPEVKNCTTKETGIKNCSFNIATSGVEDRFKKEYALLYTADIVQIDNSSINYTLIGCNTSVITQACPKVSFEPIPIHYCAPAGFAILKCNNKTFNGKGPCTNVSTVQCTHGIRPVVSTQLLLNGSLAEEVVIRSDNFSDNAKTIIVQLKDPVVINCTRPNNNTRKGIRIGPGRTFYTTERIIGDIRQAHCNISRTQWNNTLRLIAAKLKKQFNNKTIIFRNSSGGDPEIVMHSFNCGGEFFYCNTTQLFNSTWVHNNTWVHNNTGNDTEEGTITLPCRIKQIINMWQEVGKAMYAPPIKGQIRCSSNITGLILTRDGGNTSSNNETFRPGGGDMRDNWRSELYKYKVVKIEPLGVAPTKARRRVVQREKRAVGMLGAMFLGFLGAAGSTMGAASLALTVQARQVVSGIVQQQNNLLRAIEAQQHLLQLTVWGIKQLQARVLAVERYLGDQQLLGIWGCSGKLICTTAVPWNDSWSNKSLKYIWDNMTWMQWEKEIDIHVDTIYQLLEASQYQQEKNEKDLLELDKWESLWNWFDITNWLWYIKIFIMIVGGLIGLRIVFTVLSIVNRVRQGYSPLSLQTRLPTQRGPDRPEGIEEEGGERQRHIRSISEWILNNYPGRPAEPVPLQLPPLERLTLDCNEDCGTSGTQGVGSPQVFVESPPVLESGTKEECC
Regarding `COc1ccc(/C=C2/SC(=O)N(CCCCCC(=O)Nc3ccccc3C(=O)O)C2=S)cc1`, the 50% inhibitory concentration (IC50) (in general, the point on the concentration scale where inhibition reaches its midpoint) is 18 µM (active). The result for `COc1cc(/C=N/Nc2ccc(Cl)c(C(=O)O)c2)ccc1OC(=O)c1ccccc1F` reads 26.2 µM (active). The result for `N#Cc1c(-c2ccccc2)nc(SCc2ccc(Cl)cc2)[nH]c1=O` reads 22.5 µM (active).

Source of the values: ChEMBL document CHEMBL1201862, “PubChem BioAssay data set” (2004).
